Test results as given in US10239851B2 (priority 2014, dated 2019).
Counter-ions that a name gives are not always drawn.

Legend:
[1] = In vitro dissociation of the water soluble taxane derivatives in blood plasma of rabbit; type: in vitro ADME, New Zealand white rabbits; details: 37° C.
Procedure: The obtained water soluble taxane derivatives were formulated as 0.2 mg/ml aqueous solutions. […] After 5 min, 20 min and 60 min of incubation, 0.2 ml of solutions were respectively taken from each of the samples, and added to acetonitrile (0.4 ml) cooled to −20° C. for precipitation of protein.

[2] = In vitro dissociation of the water soluble taxane derivatives in blood plasma of rat; type: in vitro ADME, SD rats; details: 37° C.
Procedure: The obtained water soluble taxane derivatives were formulated as 0.2 mg/ml aqueous solutions. […] After 2 min, 5 min and 10 min of incubation, 0.2 ml of solutions were respectively taken from each of the samples, and added to acetonitrile (0.4 ml) cooled to −20° C. for precipitation of protein.

[3] = tested on: human ovarian cancer SK-OV-3; details: 24 mg/kg (paclitaxel 16 mg/kg) D0-4 IV; for Tumor volume (D0): D0, at grouping; for Tumor inhibitory percent (%) D22: P=0.000 compared to the control
Text: Test of the inhibitory activity of the water soluble paclitaxel derivatives on subcutaneously xenografted tumor of human ovarian cancer SK-OV-3 in nude mice: evaluating and comparing the inhibitory activity of the water soluble paclitaxel derivatives of the present invention, paclitaxel and Abraxane® on subcutaneously xenografted tumor of human ovarian cancer SK-OV-3 in nude mice.
Human ovarian cancer SK-OV-3 cells were subcutaneously inoculated to nude mice. After the tumor volume reached 100-150 mm^3, the animals were randomly divided into groups (D0), and administered with the water soluble paclitaxel derivatives of the present invention, paclitaxel, and Abraxane®, respectively once per day for 5 days. The tumor volume was measured 2-3 times per week, the animals were weighed and the data were recorded until day 22 (D22) after grouping.
The tumor volume (V) was calculated according to the equation: V=½×a×b^2, wherein a and b represent the length and the width, respectively.
T/C (%)=(T−T0)/(C−C0)×100, wherein T and C represent the tumor volume at the end of the experiment; and T0 and C0 represent the tumor volume at the beginning of the experiment.

| Compound | dissociation percent ([1]; 5 min) [%] | dissociation percent ([1]; 20 min) [%] | dissociation percent ([1]; 60 min) [%] | dissociation percent ([2]; 2 min) [%] | dissociation percent ([2]; 5 min) [%] | dissociation percent ([2]; 10 min) [%] | Tumor volume (D0) [3] [mm^3] | Weight change (%) D4 [3] [%] | T/C (%) D22 [3] [%] | Tumor volume (D22) [3] [mm^3] | Tumor inhibitory percent (%) D22 [3] [%] |
| --- | --- | --- | --- | --- | --- | --- | --- | --- | --- | --- | --- |
| 2′-O-[5-(N-methyl-N-ethyl)amino-2(R)-2-difluoroethylvaleryl]docetaxel hydrochloride [Compound 12] | 35.2 | 61.3 | 73.2 | 43.6 | 75.6 | 89.6 |  |  |  |  |  |
| CO[C@H]1C(=O)[C@]2(C)[C@@H](OC)C[C@H]3OC[C@@]3(OC(C)=O)[C@H]2[C@H](OC(=O)c2ccccc2)[C@]2(O)C[C@H](OC(=O)[C@H](OC(=O)[C@H](F)CCN(C)C)[C@@H](NC(=O)OC(C)(C)C)c3ccccc3)C(C)=C1C2(C)C [Compound 07, 2′-O-[4-(N,N-dimethyl)amino-2(R)-fluorobutyryl]cabazitaxel hydrochloride] | 79.2 | 95.5 | 100 | 49.5 | 89.6 | 100 |  |  |  |  |  |
| CO[C@H]1C(=O)[C@]2(C)[C@@H](OC)C[C@H]3OC[C@@]3(OC(C)=O)[C@H]2[C@H](OC(=O)c2ccccc2)[C@]2(O)C[C@H](OC(=O)[C@H](OC(=O)[C@@H](F)CCN(C)C)[C@@H](NC(=O)OC(C)(C)C)c3ccccc3)C(C)=C1C2(C)C.Cl [Compound 08, 2′-O-[4-(N,N-dimethyl)amino-2(S)-fluorobutyryl]cabazitaxel hydrochloride] | 89.9 | 93.2 | 100 | 47.6 | 87.6 | 100 |  |  |  |  |  |
| COC1C(=O)C2(C)C(OC)CC3OCC3(OC(C)=O)C2C(OC(=O)c2ccccc2)C2(O)CC(OC(=O)C(OC(=O)C(F)CCN(C)C)C(NC(=O)OC(C)(C)C)c3ccccc3)C(C)=C1C2(C)C.Cl [Compound 09, 2′-O-[4-(N,N-dimethyl)amino-2(R,S)-fluorobutyryl]cabazitaxel hydrochloride] | 83.2 | 97.1 | 100 | 47.8 | 89.1 | 100 |  |  |  |  |  |
| COC1C(=O)C2(C)C(OC)CC3OCC3(OC(C)=O)C2C(OC(=O)c2ccccc2)C2(O)CC(OC(=O)C(OC(=O)C(CCN)C(F)F)C(NC(=O)OC(C)(C)C)c3ccccc3)C(C)=C1C2(C)C.O=S(=O)([O-])O.[Na+] [Compound 10, 2′-O-[4-amino-2(R)-difluoromethylbutyryl]cabazitaxel sodium bisulfate salt] | 38.1 | 63.2 | 80.3 | 45.2 | 86.5 | 96.8 |  |  |  |  |  |
| CCN(CC)CC[C@](C)(C(=O)O[C@@H](C(=O)O[C@H]1C[C@@]2(O)[C@@H](OC(=O)c3ccccc3)[C@@H]3[C@]4(OC(C)=O)CO[C@@H]4C[C@H](OC)[C@@]3(C)C(=O)[C@H](OC)C(=C1C)C2(C)C)[C@@H](NC(=O)OC(C)(C)C)c1ccccc1)C(F)(F)F.CS(=O)(=O)O [Compound 11, 2′-O-[4-(N,N-diethyl)amino-2-methyl-2(R)-2-trifluoromethylbutyryl]cabazitaxel methanesulfonate] | 56.2 | 80.5 | 92.1 | 52.3 | 89.6 | 97.2 |  |  |  |  |  |
| CCN(C)CC[C@@H](F)C(=O)O[C@@H](C(=O)O[C@H]1C[C@@]2(O)[C@@H](OC(=O)c3ccccc3)[C@@H]3[C@]4(OC(C)=O)CO[C@@H]4C[C@H](O)[C@@]3(C)C(=O)[C@H](OC(C)=O)C(=C1C)C2(C)C)[C@@H](NC(=O)c1ccccc1)c1ccccc1.CS(=O)(=O)O [Compound 16, 2′-O-[4-(N-methyl-N-ethyl)amino-2(R)-fluorobutyryl]paclitaxel methanesulfonate] |  |  |  |  |  |  | 133.6 ± 9.4 | −7.0 | −53 | 55.7 ± 10.6 | 137 |
| CCN(CC)CC[C@H](F)C(=O)O[C@@H](C(=O)O[C@H]1C[C@@]2(O)[C@@H](OC(=O)c3ccccc3)[C@@H]3[C@]4(OC(C)=O)CO[C@@H]4C[C@H](O)[C@@]3(C)C(=O)[C@H](OC(C)=O)C(=C1C)C2(C)C)[C@@H](NC(=O)c1ccccc1)c1ccccc1.O=C(O)/C=C/C(=O)O [Compound 17, 2′-O-[4-(N,N-diethyl)amino-2(S)-fluorobutyryl]paclitaxel fumarate] |  |  |  |  |  |  | 133.6 ± 9.4 | −8.1 | −44 | 55.7 ± 10.1 | 114 |
| CC(=O)O[C@H]1C(=O)[C@@]2(C)[C@H]([C@H](OC(=O)c3ccccc3)[C@]3(O)C[C@H](OC(=O)[C@H](OC(=O)C(F)CCN(C)C(C)C)[C@@H](NC(=O)c4ccccc4)c4ccccc4)C(C)=C1C3(C)C)[C@]1(OC(C)=O)CO[C@@H]1C[C@@H]2O.Cl (stereo partly drawn) [Compound 18, 2′-O-[4-(N-methyl-N-isopropyl)amino-2(R,S)-fluorobutyryl]paclitaxel hydrochloride] |  |  |  |  |  |  | 127.9 ± 11.4 | −10.3 | −38 | 60.4 ± 12.3 | 98 |
| CC(=O)OC1C(=O)C2(C)C(O)CC3OCC3(OC(C)=O)C2C(OC(=O)c2ccccc2)C2(O)CC(OC(=O)C(OC(=O)C(CCN(C)C)C(F)(F)F)C(NC(=O)c3ccccc3)c3ccccc3)C(C)=C1C2(C)C.Cc1ccc(S(=O)(=O)O)cc1 [Compound 19, 2′-O-[4-(N,N-dimethyl)amino-2(R,S)-2-trifluoromethylbutyryl]paclitaxel p-toluene sulfonate] |  |  |  |  |  |  | 134.9 ± 11.4 | −8.9 | −48 | 57.3 ± 11.4 | 124 |
| CC(=O)O[C@H]1C(=O)[C@@]2(C)[C@H]([C@H](OC(=O)c3ccccc3)[C@]3(O)C[C@H](OC(=O)[C@H](OC(=O)C(CCN(C)C)C(F)F)[C@@H](NC(=O)c4ccccc4)c4ccccc4)C(C)=C1C3(C)C)[C@]1(OC(C)=O)CO[C@@H]1C[C@@H]2O.Cl (stereo partly drawn) [Compound 20, 2′-O-[4-(N,N-dimethyl)amino-2(R,S)-2-difluoromethylbutyryl]paclitaxel hydrochloride] |  |  |  |  |  |  | 133.4 ± 12.6 | −8.4 | −35 | 61.2 ± 13.5 | 91 |
| CC(=O)O[C@H]1C(=O)[C@@]2(C)[C@H]([C@H](OC(=O)c3ccccc3)[C@]3(O)C[C@H](OC(=O)[C@H](OC(=O)[C@H](F)CCCN(C)C)[C@@H](NC(=O)c4ccccc4)c4ccccc4)C(C)=C1C3(C)C)[C@]1(OC(C)=O)CO[C@@H]1C[C@@H]2O.O=C(O)/C=C\C(=O)O [Compound 21, 2′-O-[5-(N,N-dimethyl)amino-2(R)-fluorovaleryl]paclitaxel maleate] |  |  |  |  |  |  | 135.8 ± 14.7 | −9.4 | −23 | 70.8 ± 16.8 | 60 |
| CC(=O)OC1C(=O)C2(C)C(O)CC3OCC3(OC(C)=O)C2C(OC(=O)c2ccccc2)C2(O)CC(OC(=O)C(OC(=O)C(CCCCN(C)C)C(F)F)C(NC(=O)c3ccccc3)c3ccccc3)C(C)=C1C2(C)C.O=S(=O)(O)O [Compound 22, 2′-O-[6-(N,N-dimethyl)amino-2(S)-2-difluoromethylhexanoyl]paclitaxel sulfate] |  |  |  |  |  |  | 133.8 ± 12.2 | −11.6 | −14 | 79.8 ± 12.8 | 36 |
| CC(=O)O[C@H]1C(=O)[C@@]2(C)[C@H]([C@H](OC(=O)c3ccccc3)[C@]3(O)C[C@H](OC(=O)[C@H](OC(=O)[C@H](F)CCN(C)C)[C@@H](NC(=O)c4ccccc4)c4ccccc4)C(C)=C1C3(C)C)[C@]1(OC(C)=O)CO[C@@H]1C[C@@H]2O.CS(=O)(=O)O [Compound C1, 2′-O-[4-(N,N-dimethyl)amino-2(R)-fluorobutyryl]paclitaxel methanesulfonate] | 77.2 | 98.4 | 100 | 64.3 | 97.0 | 100 | 133.6 ± 9.5 | −5.9 | −63 |  | 163 |
| CC(=O)O[C@H]1C(=O)[C@@]2(C)[C@H]([C@H](OC(=O)c3ccccc3)[C@]3(O)C[C@H](OC(=O)[C@H](OC(=O)[C@@H](F)CCN(C)C)[C@@H](NC(=O)c4ccccc4)c4ccccc4)C(C)=C1C3(C)C)[C@]1(OC(C)=O)CO[C@@H]1C[C@@H]2O.CS(=O)(=O)O [Compound C2, 2′-O-[4-(N,N-dimethyl)amino-2(S)-fluorobutyryl]paclitaxel methanesulfonate] | 69.7 | 98.1 | 100 | 62.8 | 96.5 | 100 |  | −5.8 | −61 | 51.2 ± 11.2 | 158 |
